Among the data in ChEMBL document CHEMBL1201862, “PubChem BioAssay data set” (2004) are IC50, AC50 and EC50 values, retold here.

Assay [1] deals with Induced myeloid leukemia cell differentiation protein Mcl-1 (Homo sapiens, UniProt Q07820). It is filed as functional.
For assay [2], the target named is T1, 1-phosphatidylinositol 4,5-bisphosphate phosphodiesterase gamma-1 (Homo sapiens, UniProt P19174).
T1 sequence (P19174 whole entry): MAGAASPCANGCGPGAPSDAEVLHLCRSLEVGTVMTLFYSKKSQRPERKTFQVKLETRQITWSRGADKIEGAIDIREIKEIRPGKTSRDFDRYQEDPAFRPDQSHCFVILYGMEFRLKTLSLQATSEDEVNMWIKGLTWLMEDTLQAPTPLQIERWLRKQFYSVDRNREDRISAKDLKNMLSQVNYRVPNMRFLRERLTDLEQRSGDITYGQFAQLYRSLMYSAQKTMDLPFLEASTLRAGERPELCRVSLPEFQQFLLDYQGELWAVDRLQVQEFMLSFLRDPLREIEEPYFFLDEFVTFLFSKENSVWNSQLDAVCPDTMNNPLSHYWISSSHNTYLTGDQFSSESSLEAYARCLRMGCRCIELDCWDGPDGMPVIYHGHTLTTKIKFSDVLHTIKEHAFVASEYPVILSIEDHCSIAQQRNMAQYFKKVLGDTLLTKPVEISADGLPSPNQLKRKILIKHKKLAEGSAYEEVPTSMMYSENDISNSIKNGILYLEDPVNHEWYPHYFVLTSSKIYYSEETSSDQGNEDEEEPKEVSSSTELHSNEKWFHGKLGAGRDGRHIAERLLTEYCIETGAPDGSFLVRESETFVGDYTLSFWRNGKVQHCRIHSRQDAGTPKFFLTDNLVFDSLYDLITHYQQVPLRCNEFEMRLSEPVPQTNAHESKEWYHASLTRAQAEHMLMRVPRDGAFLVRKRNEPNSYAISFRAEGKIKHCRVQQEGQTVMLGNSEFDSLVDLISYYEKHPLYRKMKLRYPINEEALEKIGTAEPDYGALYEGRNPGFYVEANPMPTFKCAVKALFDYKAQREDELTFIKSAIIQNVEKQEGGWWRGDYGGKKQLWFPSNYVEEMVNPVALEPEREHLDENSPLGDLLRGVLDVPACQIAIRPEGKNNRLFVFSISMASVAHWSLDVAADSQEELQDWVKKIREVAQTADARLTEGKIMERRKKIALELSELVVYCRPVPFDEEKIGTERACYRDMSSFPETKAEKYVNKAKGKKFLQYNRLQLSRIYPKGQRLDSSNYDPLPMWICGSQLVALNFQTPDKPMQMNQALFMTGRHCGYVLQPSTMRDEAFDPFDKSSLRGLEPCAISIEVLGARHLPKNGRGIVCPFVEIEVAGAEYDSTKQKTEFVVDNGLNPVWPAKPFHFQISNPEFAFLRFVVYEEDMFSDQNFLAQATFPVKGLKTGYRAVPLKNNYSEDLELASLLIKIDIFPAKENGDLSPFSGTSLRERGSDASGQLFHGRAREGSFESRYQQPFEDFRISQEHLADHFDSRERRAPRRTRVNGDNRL
Description: Counterscreen for inhibitors of phospholipase C isozymes (PLC-B3): Fluorescence-based biochemical high throughput dose response assay to identify inhibitors of phospholipase C isozymes (PLC-gamma1).

Assay [3] concerns the target Caspase-8 (Homo sapiens, UniProt Q14790). Description: caspase-8 inhibition counter-screen, dose response, selectivity assay for caspase-6 inhibitor project, biochemical, Z-IETD-R110 fluorescence, cherry-picked samples (AID 743294). A general note: Counterscreens check selectivity or assay interference.
For assay [4], the system named is HeLa. As to the kind of experiment: HeLa cell cytotoxicity, dose response, cytotoxicity control, 24 h, cherry-picked samples (AID 504726).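 Note: potency for cytotoxicity as loss of luminescence signal.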 It is filed as functional, cell-based. As to conditions: Homo sapiens.
Assay [5] addresses T2, Endoribonuclease toxin MazF (Escherichia coli K-12, UniProt P0AE70).
T2 sequence (P0AE70 whole entry): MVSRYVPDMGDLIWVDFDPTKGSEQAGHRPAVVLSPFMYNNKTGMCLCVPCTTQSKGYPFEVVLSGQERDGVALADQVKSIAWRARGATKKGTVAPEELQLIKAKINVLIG
Description: MazF toxin RNase activators, dose response, biochemical, fluorescence, single-stranded RNA substrate, uHTS hits (AID 588481). It is filed as functional.

Assay [6] deals with Cyclin-dependent kinase 5/CDK5 activator 1 (Homo sapiens, UniProt Q00535). Description: CDK5/p35 kinase inhibitors, dose response, biochemical, cherry-picked samples, set 2 (AID 504545).
In assay [7] the target is Cytochrome P450 3A4 (Homo sapiens, UniProt P08684). As to conditions: Potency.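 Note: confirmatory qHTS run detecting inhibitors and substrates of CYP3A4.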

Activity calls are given as the source filed them.

What is called IC50 is the midpoint of a concentration-inhibition curve. As usually defined, the AC50 is the concentration giving half of the maximal activity seen. What is called EC50 is the concentration needed to bring the measured effect to its halfway point.

Sequence of Cyclin-dependent kinase 5/CDK5 activator 1 (Q00535 whole entry): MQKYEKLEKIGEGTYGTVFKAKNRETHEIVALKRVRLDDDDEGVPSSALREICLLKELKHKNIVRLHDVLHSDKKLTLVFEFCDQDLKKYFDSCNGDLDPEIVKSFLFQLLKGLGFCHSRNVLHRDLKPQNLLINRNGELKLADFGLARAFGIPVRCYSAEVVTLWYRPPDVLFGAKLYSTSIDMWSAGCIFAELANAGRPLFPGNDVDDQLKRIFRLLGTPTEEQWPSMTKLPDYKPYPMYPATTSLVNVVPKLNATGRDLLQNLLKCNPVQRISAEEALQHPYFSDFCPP
Sequence of Cyclin-dependent kinase 5/CDK5 activator 1 (Q15078 whole entry, further chain): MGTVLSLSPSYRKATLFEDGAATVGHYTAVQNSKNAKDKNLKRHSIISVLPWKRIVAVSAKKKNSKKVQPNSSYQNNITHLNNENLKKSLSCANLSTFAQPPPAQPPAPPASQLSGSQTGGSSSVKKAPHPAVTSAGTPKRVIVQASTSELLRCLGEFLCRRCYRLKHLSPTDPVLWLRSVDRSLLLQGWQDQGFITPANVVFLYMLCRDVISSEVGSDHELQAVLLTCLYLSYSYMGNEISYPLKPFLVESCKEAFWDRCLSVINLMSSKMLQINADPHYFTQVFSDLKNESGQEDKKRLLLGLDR
Sequence of Induced myeloid leukemia cell differentiation protein Mcl-1 (Q07820 whole entry): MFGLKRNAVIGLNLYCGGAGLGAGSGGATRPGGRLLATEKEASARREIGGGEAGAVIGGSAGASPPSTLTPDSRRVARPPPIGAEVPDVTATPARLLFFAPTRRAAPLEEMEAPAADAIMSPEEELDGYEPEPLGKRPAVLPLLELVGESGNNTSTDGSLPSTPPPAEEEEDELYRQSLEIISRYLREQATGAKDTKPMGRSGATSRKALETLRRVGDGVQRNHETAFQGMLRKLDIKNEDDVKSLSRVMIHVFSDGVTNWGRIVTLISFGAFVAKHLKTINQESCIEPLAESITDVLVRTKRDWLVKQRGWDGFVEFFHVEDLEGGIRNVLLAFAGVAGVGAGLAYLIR
Sequence of Cytochrome P450 3A4 (P08684 whole entry): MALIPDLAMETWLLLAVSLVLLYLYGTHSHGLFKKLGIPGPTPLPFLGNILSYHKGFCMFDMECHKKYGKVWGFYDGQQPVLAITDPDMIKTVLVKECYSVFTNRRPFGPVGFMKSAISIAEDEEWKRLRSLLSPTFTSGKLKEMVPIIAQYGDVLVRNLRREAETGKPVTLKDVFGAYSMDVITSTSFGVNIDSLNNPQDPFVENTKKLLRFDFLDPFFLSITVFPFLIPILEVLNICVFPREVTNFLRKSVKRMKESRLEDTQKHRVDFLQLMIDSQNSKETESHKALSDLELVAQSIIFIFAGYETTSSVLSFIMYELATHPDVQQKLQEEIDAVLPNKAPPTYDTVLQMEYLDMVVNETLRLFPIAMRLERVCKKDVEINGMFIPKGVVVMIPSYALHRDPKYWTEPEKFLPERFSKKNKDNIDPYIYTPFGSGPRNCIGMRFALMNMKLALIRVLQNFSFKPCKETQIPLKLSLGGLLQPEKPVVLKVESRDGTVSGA
Sequence of Caspase-8 (Q14790 217-374 limits assumed): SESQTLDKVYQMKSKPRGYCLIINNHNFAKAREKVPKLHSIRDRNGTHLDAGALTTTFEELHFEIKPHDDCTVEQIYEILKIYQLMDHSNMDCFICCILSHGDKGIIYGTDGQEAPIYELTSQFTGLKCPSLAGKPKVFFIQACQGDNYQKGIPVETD
Sequence of Caspase-8 (Q14790 385-479 limits assumed): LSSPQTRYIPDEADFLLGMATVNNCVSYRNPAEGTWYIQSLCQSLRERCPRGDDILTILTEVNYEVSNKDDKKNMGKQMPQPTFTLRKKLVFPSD

Take `O=c1c(O)cccc2cc(O)c(O)c(O)c12` [PURPUROGALLIN]: the IC50 is > 54 µM (active) in assay [1] and 20.9 µM (inactive) in assay [2]. Further, the AC50 in assay [3] is > 70 µM (inactive); in assay [4] it was 103 µM (active); in assay [6], 23.2 µM (active); in assay [7], 31.6 µM (inconclusive). In addition, the EC50 in assay [5] is 80.3 µM (inactive).
